The values that follow come from paper PMC6547740, “Potent and specific MTH1 inhibitors targeting gastric cancer” (Cell Death & Disease, 2019).

Experiment [1] concerns HGC-27 cells. Briefly: Alkaline comet assay, HGC-27. The format is cell-based, human. The conditions noted are these: HGC-27, 10 µM, 48 h, compared with DMSO. How it is done: (§1) MGC-803 and HGC-27 cells were seeded into 6-well plates(1.5 × 10^5 cells/well) and cultured overnight. For siRNA experiments, the control siRNA and MTH1 siRNA were transfected into cells. For compounds experiments, cells were treated with candidate compounds MI-743 for 48 h before collection. For the H2O2 control, cells were treated with 100 µM H2O2 for 10 min. Subsequently, cells were harvested, washed and resuspended with PBS. After counting, cells were mixed with 1.2% low melting-temperature agarose at 37 °C. The mixtures were layered onto pre-warmed glass slides, which were pre-coated with 1% agarose. After adding coverslips, slides were kept in 4 °C immediately for 10-15 min, followed by immersing in pre-chilled lysis buffer(2.5 M NaCl, 0.1 M EDTA, 10 mM Tris-HCL pH 7.7, 1% Triton X-100, 1% DMSO)for 5-8 h. Then, slides were washed three times with enzyme reaction buffer (40 mM HEPES pH 8.0, 0.1 M KCl, 0.5 mM EDTA and 0.2 mg/mL BSA) and incubated for another 45 min in pre-chilled alkaline electrophoresis buffer (50 mM NaOH, 1 mM EDTA, 1% DMSO, pH12.8). After electrophoresis for 30 min at 25 V, slides were neutralized with 0.4 M Tris-HCl pH 7.0 for 1 h and stained with 1‰ EB for 5 min. At last, images were acquired using fluorescence microscope and analysised by CometScore software.

Experiment [2] has as its system HepG2 cells. The experiment in a line: MTT cell viability, HepG2. The format is cell-based. The conditions noted are these: Homo sapiens, liver cancer cell line, 72 h. As for the experimental part: (§2) The cell viability was determined by 3-(4,5-dimethylthiazol-2-yl)-2,5-diphenyltetrazolium bromide (MTT) assay, according to the manufacturer’s instructions. 1 day before treatment, cells were seeded into 96-well plates at a concentration of 2–5 × 10^3 cells per well, followed by treatment with fresh medium containing serial dilutions of candidate compounds for 48 or 72 h, 20 μL of MTT solution (5 mg/mL in PBS) was then added to each well. After treatment, the plates were incubated at 37 °C for another 4 h. Subsequently, the MTT solution was removed and 150 μL of DMSO was added to each well for 10 min, and then the plates were shaken to dissolve the dark blue crystal (formazan), the absorbance was detected at 570 nm using a BioTek microplate reader. The data were analyzed using SPSS 20 software.

Experiment [3] relates to ZIP177 cells. The experiment in a line: MTT cell viability, ZIP177. In kind it is cell-based. The conditions noted are these: Homo sapiens, liver cancer cell line, 72 h. How it is done:
as §2

The subject of experiment [4] is Het-1A cells. Briefly: MTT cell viability, Het-1A. The format is cell-based. Particulars: Homo sapiens, normal esophageal epithelial cell line, 72 h. How it is done: as §2
The test system of experiment [5] is MGC-803 cells. Briefly: Alkaline comet assay, MGC-803. The format is cell-based, human. Particulars: MGC-803, 10 µM, 48 h, compared with DMSO. As for the experimental part: as §1
Experiment [6] relates to MKN45 cells. The experiment in a line: MTT cell viability, MKN45. In kind it is cell-based. The conditions noted are these: Homo sapiens, MKN-45, gastric cancer cell line, 72 h. As for the experimental part: as §2
The test system of experiment [7] is HGC-27 cells. The experiment in a line: Colony formation assay, HGC-27. In kind it is cell-based, human. Particulars: HGC-27, 7 days treatment, compared with DMSO or MI-929. How it is done:
The day before treatment, cells were seeded into six-well plates at a concentration of 1 × 10^3 cells per well, and then the media were replaced with fresh media containing serial concentrations of candidate compounds. After 7 days of treatment, the cells were fixed with 75% ethanol, stained with 0.1% crystal violet solution and captured by the microscopy (Leica). After that, the crystal violet crystals were dissolved by adding methanol. The absorbance at 595 nm was measured by a BioTek micro plate reader. In the end, the data were analyzed using the GraphPad Prism 5 software.

In experiment [8] the test system is HGC-27 cells. The experiment in a line: Western blot of DNA damage response markers, HGC-27. The format is cell-based, human. Particulars: HGC-27, 1-12 µM 48 h or 12 µM 12-48 h, dose and time-dependently, vs DMSO. As for the experimental part: MGC-803, HGC-27 and GES-1 cells were seeded into 100mm^2 plastic dishes(1 × 10^5 cells/well) and incubated overnight prior to the addition of compound MI-743 at 1, 2, 4, 8 and 12 µM for 48 h or compound MI-743 at 12 µM for 12, 24, 36 and 48 h, respectively. After treatment, the cells were harvested and lysed with RIPA cell lysis buffer, containing protease inhibitor cocktail. Then, the cells were centrifuged at 12,000 × g for 20 min at 4 °C. The supernatant were collected and the concentration was determined by a Bicinchoninic Acid (BCA) Protein Assay kit, denatured at 100 °C for 10 min, separated by SDS−PAGE and transferred to 0.22 μm nitrocellulose membranes. After blocking by PBS containing 5% skim milk for 2 h at room temperature, the membranes were probed with the appropriate primary antibodies (1:500~1:1000) at 4 °C overnight, followed by the treatment of horseradish-peroxidase-conjugated secondary antibody (1:10000) at room temperature for 2 h. Subsequently, the membranes were washed with PBST, examined by enhanced chemiluminescence and the data was determined using Image J software.
Background: A western blot detects proteins with antibodies after separation by electrophoresis.

Experiment [9] concerns HL-7702 cells. The experiment in a line: MTT cell viability, HL-7702. In kind it is cell-based. Particulars: Homo sapiens, L02, normal liver cell line, 72 h. As for the experimental part:
as §2

For experiment [10], the system named is HGC-27 cells. Briefly: 8-oxo-dG assay (Cy3-conjugated avidin), HGC-27. In kind it is cell-based, human. The conditions noted are these: HGC-27, 5 µM, 48 h, compared with DMSO. How it is done:
Intracellular 8-oxo-dG levels were measured by staining with Cy3-conjugated avidin[65]. Cells were seeded on coverslips in 24-well plates (1–1.5 × 10^4 cells/well) overnight, and then transfected with candidate compounds. After 48 h, the cells were fixed with ice-cold methanol in Tris-buffered saline (TBS) for 15 min and blocked, using TBS with 0.1% Triton X-100 and 15% fetal bovine serum for 1 h. Then, the cells were stained with Cy3-conjugated avidin (0.5 µg/mL) for 1 h at room temperature. DNA was counterstained with 4,6-diamidino-2-phenylindole(DAPI). Images were acquired in a Nikon Eclipse TE 2000-S fluorescence microscope.

Experiment [11] has as its system MCF-7 cells. The experiment in a line: MTT cell viability, MCF-7. The format is cell-based. The conditions noted are these: Homo sapiens, MCF7, breast cancer cell line, 72 h. As for the experimental part: as §2

Take `C#CCSc1nc(NNC(N)=S)c(C#N)c(-c2ccc3oc(=O)ccc3c2)n1` [MI-743, 2-(5-cyano-6-(2-oxo-2H-chromen-6-yl)-2-(prop-2-yn-1-ylthio)pyrimidin-4-yl)hydrazine-1-carbothioamide]: the comet tail moment result in experiment [1] and in experiment [5] was “significantly elevated” throughout. Further, the IC50 – broadly, the concentration needed to halve the response being measured – turned out to be 6.73 ± 0.83 µM in experiment [2]; 9.36 ± 0.92 µM in experiment [3]; 19.2 ± 1.89 µM in [4]; 16 ± 1.18 µM in [6]; 20.1 ± 1.76 µM in [9]; 9.67 ± 1.01 µM in experiment [11]. Also, the colony formation result in [7] was “smaller and fewer colonies”. In addition, the “expression levels of p53pS15, ATMpS1981 and p21” value in [8] was “significantly increased”. The “levels of 8-oxo-dG” value in experiment [10] is recorded as “sharply increased”.
